The values that follow are results of earlier work, collected in patent publication US20230404915A1, “RAPIDLY […] COMPOSTIONS AND METHODS (Nicotine)” (ORCOSA INC., priority 2020, published 2023).

The target in this data set is nicotinic acetylcholine receptors (nAChRs) (Homo sapiens, UniProt P17787+P43681). As to conditions: peak levels of nicotine after smoking a cigarette; brain α4β2 nAChRs.
Chain of nicotinic acetylcholine receptors (nAChRs) (P43681 29-627 limits assumed): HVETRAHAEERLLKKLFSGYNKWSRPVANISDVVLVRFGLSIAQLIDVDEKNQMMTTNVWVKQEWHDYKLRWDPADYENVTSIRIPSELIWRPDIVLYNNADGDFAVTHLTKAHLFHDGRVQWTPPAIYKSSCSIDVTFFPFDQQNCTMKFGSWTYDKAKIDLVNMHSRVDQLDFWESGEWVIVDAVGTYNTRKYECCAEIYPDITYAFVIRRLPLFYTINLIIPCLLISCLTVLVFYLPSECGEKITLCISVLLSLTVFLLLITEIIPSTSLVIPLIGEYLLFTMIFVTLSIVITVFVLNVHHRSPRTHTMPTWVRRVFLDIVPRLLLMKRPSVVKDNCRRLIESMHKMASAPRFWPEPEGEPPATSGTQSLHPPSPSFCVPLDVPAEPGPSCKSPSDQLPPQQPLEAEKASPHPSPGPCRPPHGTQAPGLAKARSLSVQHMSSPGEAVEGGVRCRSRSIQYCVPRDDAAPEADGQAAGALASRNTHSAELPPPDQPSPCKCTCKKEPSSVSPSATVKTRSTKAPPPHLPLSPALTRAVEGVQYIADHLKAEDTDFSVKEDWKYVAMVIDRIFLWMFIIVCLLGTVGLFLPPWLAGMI
Chain of nicotinic acetylcholine receptors (nAChRs) (P17787 26-502): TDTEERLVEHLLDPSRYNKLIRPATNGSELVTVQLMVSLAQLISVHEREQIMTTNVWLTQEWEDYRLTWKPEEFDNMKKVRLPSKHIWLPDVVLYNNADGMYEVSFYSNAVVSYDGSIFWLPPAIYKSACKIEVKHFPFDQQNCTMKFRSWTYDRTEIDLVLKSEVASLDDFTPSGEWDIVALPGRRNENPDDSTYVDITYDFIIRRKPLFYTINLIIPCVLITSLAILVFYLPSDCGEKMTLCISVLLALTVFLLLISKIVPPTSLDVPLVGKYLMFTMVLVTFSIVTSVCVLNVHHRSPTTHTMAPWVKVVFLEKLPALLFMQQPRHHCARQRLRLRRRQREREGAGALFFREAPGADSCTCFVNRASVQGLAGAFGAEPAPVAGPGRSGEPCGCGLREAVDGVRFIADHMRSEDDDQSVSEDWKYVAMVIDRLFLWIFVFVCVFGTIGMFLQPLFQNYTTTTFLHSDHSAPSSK

Consider `CN1CCCC1c1cccnc1` (stereo not shown) [nicotine], for which the “binding to the nicotinic acetylcholine receptors (nAChRs), saturation” value is recorded as “around 90%”.
